According to patent publication US20110212466A1, “Thiol-Modified Surface Immobilization Article And Method” (priority 2009, published 2011):

Test system: carbonic anhydrase (CAII)
Experiment: furosemide binding on immobilized CAII, Epic biosensor (Example 3)
Conditions: cystine in combination with glycine
Description: Step 3. Binding of protein inhibitor: The plate was equilibrated at ambient (25° C.) temperature for about 30 min before rinsing with PBS (on Biomek, following standard rinsing protocol). The plate was centrifuged and soaked in 0.1% DMSO in PBS for about 4 h at ambient temperature.
The plate was then read in the Epic® instrument for 20 min.

With `NS(=O)(=O)c1cc(C(=O)O)c(NCc2ccco2)cc1Cl` [furosemide] as the compound, how does the binding read?
Its binding is “over 10 pm”.
